Measured values: ChEMBL document CHEMBL3112480, “γ-Alkylidene-γ-lactones and isobutylpyrrol-2(5H)-ones analogues to rubrolides as inhibitors of biofilm formation by gram-positive and gram-negative bacteria” (Bioorg Med Chem Lett, 2014)
One block for each molecule: values may come before it.

Columns and labels:
Streptococcus mutans [1] = assay: Antibacterial activity against Streptococcus mutans OMZ175 assessed as inhibition of biofilm formation at 6 uM relative to control; type: functional
Streptococcus mutans [2] = assay: Antibacterial activity against Streptococcus mutans ATCC 25175 assessed as effect on planktonic growth at 5.5 ug/ml after 20 hrs relative to control; type: functional
[3] = test system: Staphylococcus epidermidis; assay: Antibacterial activity against Staphylococcus epidermidis ATCC 35547 assessed as effect on planktonic growth at 21.9 ug/ml after 20 hrs relative to control; type: functional
Pseudomonas aeruginosa [4] = assay: Antibacterial activity against Pseudomonas aeruginosa ATCC 27853 assessed as effect on planktonic growth at 43.8 ug/ml after 20 hrs relative to control; type: functional
Streptococcus mutans [5] = assay: Antibacterial activity against Streptococcus mutans ATCC 25175 assessed as effect on planktonic growth at 0.34 ug/ml after 20 hrs relative to control; type: functional
[6] = test system: Staphylococcus epidermidis; assay: Antibacterial activity against Staphylococcus epidermidis ATCC 35547 assessed as effect on planktonic growth at 10.9 ug/ml after 20 hrs relative to control; type: functional
[7] = test system: Staphylococcus epidermidis; assay: Antibacterial activity against Staphylococcus epidermidis ATCC 35547 assessed as effect on planktonic growth at 1.37 ug/ml after 20 hrs relative to control; type: functional
Streptococcus mutans [8] = assay: Antibacterial activity against Streptococcus mutans ATCC 25175 assessed as effect on planktonic growth at 43.8 ug/ml after 20 hrs relative to control; type: functional
[9] = test system: Staphylococcus epidermidis; assay: Antibacterial activity against Staphylococcus epidermidis ATCC 35547 assessed as effect on planktonic growth at 0.17 ug/ml after 20 hrs relative to control; type: functional
Pseudomonas aeruginosa [10] = assay: Antibacterial activity against Pseudomonas aeruginosa ATCC 27853 assessed as effect on planktonic growth at 1.37 ug/ml after 20 hrs relative to control; type: functional
Staphylococcus aureus [11] = assay: Antibacterial activity against Staphylococcus aureus ATCC 25923 assessed as effect on planktonic growth at 0.34 ug/ml after 20 hrs relative to control; type: functional
Streptococcus mutans [12] = assay: Antibacterial activity against Streptococcus mutans ATCC 25175 assessed as effect on planktonic growth at 10.9 ug/ml after 20 hrs relative to control; type: functional
Staphylococcus aureus [13] = assay: Antibacterial activity against Staphylococcus aureus ATCC 25923 assessed as effect on planktonic growth at 43.8 ug/ml after 20 hrs relative to control; type: functional
Pseudomonas aeruginosa [14] = assay: Antibacterial activity against Pseudomonas aeruginosa ATCC 27853 assessed as effect on planktonic growth at 0.17 ug/ml after 20 hrs relative to control; type: functional
[15] = test system: Staphylococcus epidermidis; assay: Antibacterial activity against Staphylococcus epidermidis ATCC 35547 assessed as effect on planktonic growth at 0.34 ug/ml after 20 hrs relative to control; type: functional
Staphylococcus aureus [16] = assay: Antibacterial activity against Staphylococcus aureus ATCC 25923 assessed as effect on planktonic growth at 21.9 ug/ml after 20 hrs relative to control; type: functional
Streptococcus mutans [17] = assay: Induction of biofilm formation in Streptococcus mutans ATCC 25175 at 44 ug/ml after 20 hrs by crystal-violet staining method relative to control
Staphylococcus aureus [18] = assay: Antibacterial activity against Staphylococcus aureus ATCC 25923 assessed as effect on planktonic growth at 2.73 ug/ml after 20 hrs relative to control; type: functional
Staphylococcus aureus [19] = assay: Antibacterial activity against Staphylococcus aureus ATCC 25923 assessed as effect on planktonic growth at 5.5 ug/ml after 20 hrs relative to control; type: functional
Pseudomonas aeruginosa [20] = assay: Antibacterial activity against Pseudomonas aeruginosa ATCC 27853 assessed as inhibition of biofilm formation after 20 hrs by crystal-violet staining method; type: functional, organism-based
Pseudomonas aeruginosa [21] = assay: Antibacterial activity against Pseudomonas aeruginosa ATCC 27853 assessed as effect on planktonic growth at 0.68 ug/ml after 20 hrs relative to control; type: functional
Staphylococcus aureus [22] = assay: Antibacterial activity against Staphylococcus aureus ATCC 25923 assessed as effect on planktonic growth at 0.17 ug/ml after 20 hrs relative to control; type: functional
Pseudomonas aeruginosa [23] = assay: Antibacterial activity against Pseudomonas aeruginosa ATCC 27853 assessed as effect on planktonic growth at 21.9 ug/ml after 20 hrs relative to control; type: functional
Pseudomonas aeruginosa [24] = assay: Antibacterial activity against Pseudomonas aeruginosa ATCC 27853 assessed as effect on planktonic growth at 87.5 ug/ml after 20 hrs relative to control; type: functional
Pseudomonas aeruginosa [25] = assay: Antibacterial activity against Pseudomonas aeruginosa ATCC 27853 assessed as effect on planktonic growth at 2.73 ug/ml after 20 hrs relative to control; type: functional
Staphylococcus aureus [26] = assay: Antibacterial activity against Staphylococcus aureus ATCC 25923 assessed as effect on planktonic growth at 87.5 ug/ml after 20 hrs relative to control; type: functional
Pseudomonas aeruginosa [27] = assay: Antibacterial activity against Pseudomonas aeruginosa ATCC 27853 assessed as effect on planktonic growth at 10.9 ug/ml after 20 hrs relative to control; type: functional
[28] = test system: Staphylococcus epidermidis; assay: Antibacterial activity against Staphylococcus epidermidis ATCC 35547 assessed as effect on planktonic growth at 87.5 ug/ml after 20 hrs relative to control; type: functional
[29] = test system: Staphylococcus epidermidis; assay: Antibacterial activity against Staphylococcus epidermidis ATCC 35547 assessed as inhibition of biofilm formation after 20 hrs by crystal-violet staining method; type: functional, organism-based
Pseudomonas aeruginosa [30] = assay: Antibacterial activity against Pseudomonas aeruginosa ATCC 27853 assessed as effect on planktonic growth at 5.5 ug/ml after 20 hrs relative to control; type: functional
[31] = test system: Staphylococcus epidermidis; assay: Antibacterial activity against Staphylococcus epidermidis ATCC 35547 assessed as effect on planktonic growth at 43.8 ug/ml after 20 hrs relative to control; type: functional
Pseudomonas aeruginosa [32] = assay: Antibacterial activity against Pseudomonas aeruginosa ATCC 27853 assessed as effect on planktonic growth at 0.34 ug/ml after 20 hrs relative to control; type: functional
[33] = test system: Staphylococcus epidermidis; assay: Antibacterial activity against Staphylococcus epidermidis ATCC 35547 assessed as effect on planktonic growth at 2.73 ug/ml after 20 hrs relative to control; type: functional
Streptococcus mutans [34] = assay: Antibacterial activity against Streptococcus mutans ATCC 25175 assessed as effect on planktonic growth at 21.9 ug/ml after 20 hrs relative to control; type: functional
Streptococcus mutans [35] = assay: Antibacterial activity against Streptococcus mutans ATCC 25175 assessed as effect on planktonic growth at 1.37 ug/ml after 20 hrs relative to control; type: functional
[36] = test system: Staphylococcus epidermidis; assay: Antibacterial activity against Staphylococcus epidermidis ATCC 35547 assessed as effect on planktonic growth at 0.68 ug/ml after 20 hrs relative to control; type: functional
Staphylococcus aureus [37] = assay: Antibacterial activity against Staphylococcus aureus ATCC 25923 assessed as effect on planktonic growth at 1.37 ug/ml after 20 hrs relative to control; type: functional
Streptococcus mutans [38] = assay: Antibacterial activity against Streptococcus mutans ATCC 25175 assessed as effect on planktonic growth at 0.68 ug/ml after 20 hrs relative to control; type: functional
Streptococcus mutans [39] = assay: Antibacterial activity against Streptococcus mutans ATCC 25175 assessed as effect on planktonic growth at 87.5 ug/ml after 20 hrs relative to control; type: functional
Staphylococcus aureus [40] = assay: Antibacterial activity against Staphylococcus aureus ATCC 25923 assessed as effect on planktonic growth at 0.68 ug/ml after 20 hrs relative to control; type: functional
Staphylococcus aureus [41] = assay: Antibacterial activity against Staphylococcus aureus ATCC 25923 assessed as effect on planktonic growth at 10.9 ug/ml after 20 hrs relative to control; type: functional
Streptococcus mutans [42] = assay: Antibacterial activity against Streptococcus mutans ATCC 25175 assessed as effect on planktonic growth at 0.17 ug/ml after 20 hrs relative to control; type: functional
[43] = test system: Staphylococcus epidermidis; assay: Antibacterial activity against Staphylococcus epidermidis ATCC 35547 assessed as effect on planktonic growth at 5.5 ug/ml after 20 hrs relative to control; type: functional
Streptococcus mutans [44] = assay: Antibacterial activity against Streptococcus mutans ATCC 25175 assessed as effect on planktonic growth at 2.73 ug/ml after 20 hrs relative to control; type: functional

Compound: O=C1C=C/C(=C/Br)O1
inhibition at 6 µM (Streptococcus mutans [1]): 26%

IC50 (Pseudomonas aeruginosa [20]; ATCC 27853, 20 h): > 87.5 µg/mL
IC50 ([29]; ATCC 35547, 20 h): > 87.5 µg/mL
Compound: COc1ccc(C)cc1C1=C(Br)C(=O)O/C1=C\c1cccc(Cl)c1
Activity (Streptococcus mutans [2]): 5.2%
Activity [3]: 8.9%
Activity (Pseudomonas aeruginosa [4]): -8.5%
Activity (Streptococcus mutans [5]): 9.9%
Activity [6]: -3.1%
Activity [7]: 4.9%
Activity (Streptococcus mutans [8]): 19.8%
Activity [9]: 13.2%
Activity (Pseudomonas aeruginosa [10]): 0.8%
Activity (Staphylococcus aureus [11]): 47.5%
Activity (Streptococcus mutans [12]): -2.7%
Activity (Staphylococcus aureus [13]): 66.1%
Activity (Pseudomonas aeruginosa [14]): -3%
Activity [15]: 10.3%
Activity (Staphylococcus aureus [16]): 39.3%
Activity (Streptococcus mutans [17]): Toxic
Activity (Staphylococcus aureus [18]): 46.8%
Activity (Staphylococcus aureus [19]): 35.4%
inhibition (Pseudomonas aeruginosa [20]): Dose-dependent effect
Activity (Pseudomonas aeruginosa [21]): -0.1%
Activity (Staphylococcus aureus [22]): 23%
Activity (Pseudomonas aeruginosa [23]): -12.1%
Activity (Pseudomonas aeruginosa [24]): 7.8%
Activity (Pseudomonas aeruginosa [25]): -4.8%
Activity (Staphylococcus aureus [26]): 131%
Activity (Pseudomonas aeruginosa [27]): -14%
Activity [28]: 33.8%
inhibition [29]: Dose-dependent effect
Activity (Pseudomonas aeruginosa [30]): -8.9%
Activity [31]: 12.7%
Activity (Pseudomonas aeruginosa [32]): -4.8%
Activity [33]: -4%
Activity (Streptococcus mutans [34]): 12.1%
Activity (Streptococcus mutans [35]): 0%
Activity [36]: 11.9%
Activity (Staphylococcus aureus [37]): 50.6%
Activity (Streptococcus mutans [38]): -5.8%
Activity (Streptococcus mutans [39]): 34.9%
Activity (Staphylococcus aureus [40]): 52.2%
Activity (Staphylococcus aureus [41]): 34.9%
Activity (Streptococcus mutans [42]): 10.2%
Activity [43]: 4%
Activity (Streptococcus mutans [44]): 8.2%
